These are literature values, as cited in US20090306209A1, “ENTERIC-COATED FORMULATIONS OF POLYETHYLENE GLYCOL AND ONE OR MORE SOLUBLE AMINO ACIDS FOR ORAL INGESTION AND ENHANCED UPTAKE OF SAME” (priority 2008, published 2009).

Where two headings read alike, the source gives them in different places.

The conditions of this data set: for solubility in water (in words): temperature not stated.

As to `Cl.NC(=O)CC[C@H](N)C(=O)O` [L-glutamine-HCl], the “solubility in water (in words)” value is reported as “very soluble in water”. With `NC(=O)CC[C@H](N)C(=O)O` [L-glutamine], the solubility in water (water at 30° C.) is 5 grams/100 ml. `CC(C)C[C@H](N)C(=O)O.Cl` [L-leucine.HCl]: the “solubility in water (in words)” value is “very soluble in water”. Take `CC(C)C[C@H](N)C(=O)O` [L-leucine]: the solubility in water (water at 25° C.) is recorded as 2.4 g/100 ml.
